For assay [1], the target named is T1, Activin receptor type-1B (Homo sapiens) (UniProt P36896).
T1 sequence (whole entry): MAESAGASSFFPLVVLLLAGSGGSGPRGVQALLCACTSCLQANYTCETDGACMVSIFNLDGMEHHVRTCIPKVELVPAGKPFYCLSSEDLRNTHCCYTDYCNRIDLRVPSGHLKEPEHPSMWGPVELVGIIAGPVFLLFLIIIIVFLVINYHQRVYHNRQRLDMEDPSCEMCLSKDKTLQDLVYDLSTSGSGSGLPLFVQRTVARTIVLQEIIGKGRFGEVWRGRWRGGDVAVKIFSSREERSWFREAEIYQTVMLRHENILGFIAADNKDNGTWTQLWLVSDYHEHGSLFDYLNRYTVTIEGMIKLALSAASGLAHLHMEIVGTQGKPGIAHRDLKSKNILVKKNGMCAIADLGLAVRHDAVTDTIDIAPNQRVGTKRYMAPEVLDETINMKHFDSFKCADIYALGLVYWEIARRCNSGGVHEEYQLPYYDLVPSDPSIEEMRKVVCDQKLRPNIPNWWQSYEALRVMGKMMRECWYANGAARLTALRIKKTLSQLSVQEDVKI
The assay is described as follows: Selectivity interaction (KinomeScan (DiscoverX)) EUB0000607a ACVR1B. The following applies: at 10 µM.

Assay [2] concerns the target STE20/SPS1-related proline-alanine-rich protein kinase (Homo sapiens) (UniProt Q9UEW8). The note with it: at 10 µM.
Assay [3] addresses Calcium/calmodulin-dependent protein kinase type II subunit delta (Homo sapiens) (UniProt Q13557). The assay is described as follows: Selectivity interaction (Kinase panel (DSF assay)) EUB0001558a CAMK2D. (In general: In DSF a fluorescence change marks the thermal transition of the protein.)
Assay [4] addresses T2, Histone-arginine methyltransferase CARM1 (Homo sapiens) (UniProt Q86X55).
T2 sequence (whole entry): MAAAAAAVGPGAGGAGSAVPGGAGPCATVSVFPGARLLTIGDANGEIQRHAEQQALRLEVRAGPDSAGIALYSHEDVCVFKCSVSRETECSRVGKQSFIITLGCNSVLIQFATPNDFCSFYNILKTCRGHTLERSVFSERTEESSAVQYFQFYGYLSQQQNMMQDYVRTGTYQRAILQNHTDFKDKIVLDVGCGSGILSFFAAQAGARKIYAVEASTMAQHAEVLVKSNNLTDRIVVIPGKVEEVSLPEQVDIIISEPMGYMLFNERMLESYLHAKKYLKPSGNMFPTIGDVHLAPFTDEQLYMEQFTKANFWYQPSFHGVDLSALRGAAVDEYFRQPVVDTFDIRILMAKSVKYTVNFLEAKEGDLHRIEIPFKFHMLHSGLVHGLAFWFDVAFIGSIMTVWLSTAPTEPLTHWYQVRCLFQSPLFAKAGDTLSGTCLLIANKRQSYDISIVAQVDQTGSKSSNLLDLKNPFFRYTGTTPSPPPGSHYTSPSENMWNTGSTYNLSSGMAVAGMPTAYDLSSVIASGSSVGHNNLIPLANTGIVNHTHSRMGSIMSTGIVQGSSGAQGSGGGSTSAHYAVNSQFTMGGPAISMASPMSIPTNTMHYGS
The following applies: KMS-12-BM, at 3 µM.

The target in assay [5] is T2, Histone-arginine methyltransferase CARM1 (Homo sapiens). The note with it: MM.1R, at 3 µM.
The target in assay [6] is RAC-gamma serine/threonine-protein kinase (Homo sapiens, UniProt Q9Y243). Kind of assay: Selectivity interaction (KinomeScan (DiscoverX)) EUB0000655a AKT3. The note with it: at 10 µM.
Assay [7] concerns the target Thromboxane-A synthase (Homo sapiens) (UniProt P24557). The assay is described as follows: Selectivity interaction (Eurofins safety panel) EUB0001564a CYP5A1. The following applies: at 10 µM.
For assay [8], the target named is Dual specificity mitogen-activated protein kinase kinase 1 (Homo sapiens, UniProt Q02750). Kind of assay: Selectivity interaction (ActivX KiNativ screen (kinase selectivity in THP-1 cell lysates)) EUB0000639a MAP2K1. The class given is subcellular. The following applies: lysate, at 0.2 µM.
The target of assay [9] is Phosphorylase b kinase gamma catalytic chain, skeletal muscle/heart isoform (Homo sapiens) (UniProt Q16816). The assay is described as follows: Selectivity interaction (Kinase panel (Invitrogen)) EUB0000639a PHKG1. The note with it: at 200 nM.
Assay [10] concerns the target Mast/stem cell growth factor receptor Kit (Homo sapiens, UniProt P10721). The following applies: at 10 µM.
Assay [11] has as its target Cyclin-dependent kinase 4/cyclin D1 (Homo sapiens) (UniProt P11802+P24385). The assay is described as follows: (§1) Selectivity interaction (KinomeScan (DiscoverX)) EUB0000092b CDK4. In kind it is protein-complex assay. The note with it: at 10 µM.
In assay [12] the target is CDK4/Cyclin D3 (Homo sapiens) (UniProt P11802+P30281). Described as §1. The class given is protein-complex assay. The note with it: at 10 µM.
In assay [13] the target is T3, Mitogen-activated protein kinase 13 (Homo sapiens) (UniProt O15264).
T3 sequence (whole entry): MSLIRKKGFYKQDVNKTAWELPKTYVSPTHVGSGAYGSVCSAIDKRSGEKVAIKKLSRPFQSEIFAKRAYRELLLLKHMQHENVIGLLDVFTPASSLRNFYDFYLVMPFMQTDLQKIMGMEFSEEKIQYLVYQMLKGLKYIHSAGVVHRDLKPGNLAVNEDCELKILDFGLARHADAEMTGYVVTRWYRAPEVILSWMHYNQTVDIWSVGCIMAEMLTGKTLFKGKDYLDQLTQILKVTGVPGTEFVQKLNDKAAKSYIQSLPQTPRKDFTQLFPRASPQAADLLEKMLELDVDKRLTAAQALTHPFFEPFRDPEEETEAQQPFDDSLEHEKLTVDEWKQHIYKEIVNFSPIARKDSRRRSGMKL
The assay is described as follows: Selectivity interaction (KinomeScan (DiscoverX)) EUB0000618a MAPK13. The following applies: at 10 µM.

For assay [14], the target named is T4, Serine/threonine-protein kinase RIO3 (Homo sapiens) (UniProt O14730).
T4 sequence (whole entry): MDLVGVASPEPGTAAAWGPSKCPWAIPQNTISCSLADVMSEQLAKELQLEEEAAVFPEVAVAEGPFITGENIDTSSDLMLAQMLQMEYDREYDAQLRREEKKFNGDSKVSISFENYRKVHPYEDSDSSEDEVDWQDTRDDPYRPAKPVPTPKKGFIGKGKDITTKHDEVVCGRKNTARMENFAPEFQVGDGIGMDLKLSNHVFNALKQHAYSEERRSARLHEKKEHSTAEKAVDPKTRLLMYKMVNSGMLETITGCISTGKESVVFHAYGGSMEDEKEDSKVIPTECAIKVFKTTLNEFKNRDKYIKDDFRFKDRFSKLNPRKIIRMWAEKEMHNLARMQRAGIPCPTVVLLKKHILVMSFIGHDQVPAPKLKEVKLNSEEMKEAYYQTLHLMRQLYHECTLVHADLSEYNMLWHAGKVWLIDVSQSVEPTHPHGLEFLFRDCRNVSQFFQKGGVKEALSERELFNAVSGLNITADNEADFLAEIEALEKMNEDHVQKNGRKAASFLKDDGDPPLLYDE
Kind of assay: Selectivity interaction (KinomeScan (DiscoverX)) EUB0000595a RIOK3. The note with it: at 10 µM.

Sequence of Mast/stem cell growth factor receptor Kit (P10721 whole entry): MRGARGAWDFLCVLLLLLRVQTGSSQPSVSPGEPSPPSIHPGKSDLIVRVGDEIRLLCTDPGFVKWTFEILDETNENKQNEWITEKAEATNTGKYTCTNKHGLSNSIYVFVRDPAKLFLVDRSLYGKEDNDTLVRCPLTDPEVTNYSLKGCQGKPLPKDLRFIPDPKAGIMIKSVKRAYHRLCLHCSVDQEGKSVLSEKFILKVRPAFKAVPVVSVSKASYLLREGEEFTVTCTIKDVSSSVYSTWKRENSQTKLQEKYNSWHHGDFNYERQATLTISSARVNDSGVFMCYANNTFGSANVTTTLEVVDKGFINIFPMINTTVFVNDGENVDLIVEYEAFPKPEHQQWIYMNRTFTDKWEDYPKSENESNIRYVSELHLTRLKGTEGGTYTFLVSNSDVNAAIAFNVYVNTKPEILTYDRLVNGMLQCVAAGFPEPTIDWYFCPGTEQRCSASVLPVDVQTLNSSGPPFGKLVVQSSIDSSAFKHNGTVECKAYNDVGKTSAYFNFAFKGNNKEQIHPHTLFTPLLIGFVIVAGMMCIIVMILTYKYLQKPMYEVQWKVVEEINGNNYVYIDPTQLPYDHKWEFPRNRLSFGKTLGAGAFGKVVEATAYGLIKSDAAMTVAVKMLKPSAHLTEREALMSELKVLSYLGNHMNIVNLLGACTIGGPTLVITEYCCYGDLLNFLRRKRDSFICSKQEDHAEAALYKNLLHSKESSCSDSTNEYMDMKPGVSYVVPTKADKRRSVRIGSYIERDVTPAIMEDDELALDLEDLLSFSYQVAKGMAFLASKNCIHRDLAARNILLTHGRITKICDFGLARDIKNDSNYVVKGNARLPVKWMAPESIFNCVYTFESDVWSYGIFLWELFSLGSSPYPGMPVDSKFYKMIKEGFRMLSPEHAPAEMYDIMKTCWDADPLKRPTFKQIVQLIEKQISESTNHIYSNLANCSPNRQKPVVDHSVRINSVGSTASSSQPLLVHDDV
Sequence of Calcium/calmodulin-dependent protein kinase type II subunit delta (Homo sapiens) (Q13557 whole entry): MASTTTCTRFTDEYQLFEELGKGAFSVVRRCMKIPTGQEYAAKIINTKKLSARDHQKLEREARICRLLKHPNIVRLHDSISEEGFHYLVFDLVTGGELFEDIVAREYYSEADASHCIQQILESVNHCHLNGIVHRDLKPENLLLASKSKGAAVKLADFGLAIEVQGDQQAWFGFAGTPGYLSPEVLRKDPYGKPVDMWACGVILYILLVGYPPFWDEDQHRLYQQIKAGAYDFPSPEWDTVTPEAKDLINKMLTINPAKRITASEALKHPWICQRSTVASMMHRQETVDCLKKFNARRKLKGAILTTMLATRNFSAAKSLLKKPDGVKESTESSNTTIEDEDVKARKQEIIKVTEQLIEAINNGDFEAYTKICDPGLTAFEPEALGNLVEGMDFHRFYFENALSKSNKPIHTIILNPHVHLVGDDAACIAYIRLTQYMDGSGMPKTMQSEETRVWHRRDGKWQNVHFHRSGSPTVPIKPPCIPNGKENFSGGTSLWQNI
Sequence of RAC-gamma serine/threonine-protein kinase (Q9Y243 whole entry): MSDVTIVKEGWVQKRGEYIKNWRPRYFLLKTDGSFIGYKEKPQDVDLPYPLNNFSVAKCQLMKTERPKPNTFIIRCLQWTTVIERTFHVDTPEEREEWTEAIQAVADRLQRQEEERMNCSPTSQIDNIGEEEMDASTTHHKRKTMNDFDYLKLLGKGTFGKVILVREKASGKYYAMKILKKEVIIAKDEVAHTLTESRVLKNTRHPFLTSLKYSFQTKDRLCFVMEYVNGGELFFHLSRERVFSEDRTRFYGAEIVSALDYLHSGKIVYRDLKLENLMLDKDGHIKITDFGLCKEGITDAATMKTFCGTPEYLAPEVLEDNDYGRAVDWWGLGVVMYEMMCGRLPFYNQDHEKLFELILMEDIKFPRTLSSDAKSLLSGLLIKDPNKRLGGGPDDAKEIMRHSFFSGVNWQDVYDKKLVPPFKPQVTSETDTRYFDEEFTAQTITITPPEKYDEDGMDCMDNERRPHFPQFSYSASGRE
Sequence of Phosphorylase b kinase gamma catalytic chain, skeletal muscle/heart isoform (Homo sapiens) (Q16816 whole entry, looked up, canonical isoform): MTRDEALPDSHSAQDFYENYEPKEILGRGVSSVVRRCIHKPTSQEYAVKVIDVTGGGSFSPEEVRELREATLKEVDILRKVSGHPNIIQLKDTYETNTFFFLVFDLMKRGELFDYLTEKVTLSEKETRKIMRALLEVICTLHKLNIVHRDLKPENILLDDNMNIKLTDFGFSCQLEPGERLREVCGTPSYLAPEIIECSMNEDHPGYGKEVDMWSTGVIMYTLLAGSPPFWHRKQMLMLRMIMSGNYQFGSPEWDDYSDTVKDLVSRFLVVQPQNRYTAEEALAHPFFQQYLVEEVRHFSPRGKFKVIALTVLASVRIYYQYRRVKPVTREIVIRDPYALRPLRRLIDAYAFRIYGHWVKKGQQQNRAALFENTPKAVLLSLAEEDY
Sequence of Thromboxane-A synthase (Homo sapiens) (P24557 whole entry): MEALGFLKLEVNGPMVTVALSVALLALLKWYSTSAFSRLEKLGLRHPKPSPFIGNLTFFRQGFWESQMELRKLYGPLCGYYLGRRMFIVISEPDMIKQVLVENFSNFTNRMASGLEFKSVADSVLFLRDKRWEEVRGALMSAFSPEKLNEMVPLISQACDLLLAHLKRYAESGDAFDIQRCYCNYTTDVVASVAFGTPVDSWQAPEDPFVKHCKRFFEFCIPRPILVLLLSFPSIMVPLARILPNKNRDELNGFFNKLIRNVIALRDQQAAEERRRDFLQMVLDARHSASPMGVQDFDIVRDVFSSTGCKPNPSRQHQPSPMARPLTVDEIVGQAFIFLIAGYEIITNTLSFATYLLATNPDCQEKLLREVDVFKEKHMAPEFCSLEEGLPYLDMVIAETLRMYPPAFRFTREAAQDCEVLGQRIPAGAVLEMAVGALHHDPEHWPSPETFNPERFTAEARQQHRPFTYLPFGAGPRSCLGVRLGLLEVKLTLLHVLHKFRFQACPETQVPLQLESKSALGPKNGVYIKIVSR
Sequence of Dual specificity mitogen-activated protein kinase kinase 1 (Q02750 whole entry, canonical isoform): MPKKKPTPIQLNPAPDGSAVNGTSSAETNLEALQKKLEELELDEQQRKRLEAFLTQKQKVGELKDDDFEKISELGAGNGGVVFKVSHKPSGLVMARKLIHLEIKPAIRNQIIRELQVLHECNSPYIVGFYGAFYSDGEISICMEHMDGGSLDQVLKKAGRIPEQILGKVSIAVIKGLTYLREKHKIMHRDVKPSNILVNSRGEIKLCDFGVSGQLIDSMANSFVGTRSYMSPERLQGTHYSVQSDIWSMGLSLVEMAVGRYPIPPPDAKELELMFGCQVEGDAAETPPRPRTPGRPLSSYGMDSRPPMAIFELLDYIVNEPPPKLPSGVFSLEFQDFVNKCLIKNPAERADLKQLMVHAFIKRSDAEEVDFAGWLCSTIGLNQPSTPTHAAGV

In turn, `CNC(=O)Nc1ccc(-c2nc(N3CC4CCC(C3)O4)c3cnn(C4CCC5(CC4)OCCO5)c3n2)cc1` yielded a % of control in [1] of 100%. Consider `Cc1cc([C@@H](C)Nc2ccccc2C(=O)O)c2nc(N3CCOCC3)cc(=O)n2c1` [AZD-6482], for which, in assay [2], the % of control amounted to 100%. In the case of `CC(C)(O)[C@H](F)CN1Cc2cc(NC(=O)c3cnn4cccnc34)c(N3CCOCC3)cc2C1=O`, the dTM in assay [3] came out at 0.3 K. Regarding `CNCCN1CCC(c2cc(CN(C)C(=O)c3cccc(Oc4ccccc4)c3)ccn2)CC1`, the % of growth rate in [4] is -8.2%; in assay [5], -37.8%. Regarding `CN(C)CCOc1ccc(-c2nc(-c3ccncc3)c(-c3ccc4c(c3)CC/C4=N\O)[nH]2)cc1`, in assay [6], the % of control amounted to 97%. `CC[C@@H](Nc1c(C#N)c(-c2ccc(-c3cccc(C)c3F)cc2)nc2cnccc12)C(=O)O` [BAY-091]: the % of inhibition in [7] was 98%. As to `CC[C@@H]1[C@H](F)C(=O)N[C@@H]1COc1nccc2cc(C(N)=O)c(OC)cc12` [ZIMLOVISERTIB], the values for the % of inhibition in assay [8] and in [9] were 3.9% and 16.7%, respectively. On to `CCN(CC)CCCCNc1ncc2cc(-c3cc(OC)cc(OC)c3)c(NC(=O)NC(C)(C)C)nc2n1`, for which the % of control in assay [10] was determined as 100%. `CCC(=O)N1CCN(c2ccc(-n3c(=O)ccc4cnc5ccc(-c6cnc7ccccc7c6)cc5c43)cc2C(F)(F)F)CC1`: the % of control was 100% in assay [11] and 87% in [12]. As to `O[C@H]1CC[C@H](Nc2ncc3nc(Nc4c(F)cc(F)cc4F)n([C@H]4CCOC4)c3n2)CC1`, the % of control in [13] was 90%.

In [14], `COCC(=O)NC/C=C/c1ccc2ncnc(Nc3ccc(Oc4ccc(C)nc4)c(C)c3)c2c1` [CP-724714] gave a % of control of 100%.

Values taken from ChEMBL document CHEMBL5465560, “Selectivity Literature for EUbOPEN Chemogenomic Library” (2024).
